Patent US20170369470A1, “Cyclic Compounds and Uses Thereof” (Karyopharm Therapeutics Inc., priority 2014, published 2017)
pIC50: −log10 of the molar value.

How the values were obtained:
Type in all cases: cell-based
MS751 cells = assay: MTT cell proliferation assay, MS751 cells; conditions: MS751 cells (human cervix squamous cell carcinoma metastasis); incubation approximately 64-72 hours; read-out: MTT Assay IC50 MS 751
Description: (§1) The MTT cell proliferation assay was used to study the cytotoxic properties of the compounds. The assay was performed according to the method described by Roche Molecular Biochemicals, with minor modifications. The assay is based on the cleavage of the tetrazolium salt, MTT, in the presence of an electron-coupling reagent. The water-insoluble formazan salt produced must be solubilized in an additional step. Cells grown in a 96-well tissue culture plate were incubated with the MTT solution for approximately 4 hours. After this incubation period, a water-insoluble formazan dye formed. After solubilization, the formazan dye was quantitated using a scanning multi-well spectrophotometer (ELISA reader). […] The cells were seeded at 5,000-10,000 cells in each well of 96-well plate in 100 μL of fresh culture medium and were allowed to attach overnight. The stock solutions of the compounds were diluted in 100 μL cell culture medium to obtain eight concentrations of each test compound, ranging from 1 nM to 30 μM. […] All optical densities were measured at 490 nm using a Vmax Kinetic Microplate Reader (Molecular Devices). In most cases, the assay was performed in duplicate and the results were presented as a mean percent inhibition to the negative control±SE. The following formula was used to calculate the percent of inhibition: Inhibition (%)=(1−(ODo/OD))×100.
(§2) The compounds were tested against MS751, Z138 and 3T3 cells. The MS751 cell line is derived from a metastasis to lymph node of human cervix from a patient diagnosed with squameous cell carcinoma of the cervix. The Z138 cell line is a mature B-cell acute lymphoblastic leukemia cell line derived from a patient with chronic lumphocytic leukemia. 3T3 cells are standard fibroblast cells; they were originally isolated from Swiss mouse embryo tissue.

Z138 cells = assay: MTT cell proliferation assay, Z138 cells; conditions: Homo sapiens, Z-138; Z138 cells (mantle cell lymphoma line); incubation approximately 64-72 hours
Description: as §1, §2

3T3 cells = assay: MTT cell proliferation assay, 3T3 cells; conditions: NIH3T3; 3T3 fibroblast cells (Swiss mouse embryo); incubation approximately 64-72 hours
Description: as §1, §2

Structure (SMILES)	pIC50 (MS751 cells)	pIC50 (Z138 cells)	pIC50 (3T3 cells)
CC1(F)CCN(C(=O)c2ccc(-c3cc(C(F)(F)F)c4sc(CNC(=O)/C=C/c5ccc(N)nc5)cc4c3)cc2)C1 (stereo not drawn) [compound 522, (E)-3-(6-aminopyridin-3-yl)-N-((5-(4-(3-fluoro-3-methylpyrrolidine-1-carbonyl)phenyl)-7-(trifluoromethyl)benzo[b]thiophen-2-yl)methyl)acrylamide]	5.00 to 5.30	5.30 to 6.00	< 5.00
Nc1ccc(/C=C/C(=O)NCCc2cc3cc(-c4ccc(C(=O)N5CCC(F)(F)CC5)cn4)cc(C(F)(F)F)c3s2)cn1 [compound 534, (E)-3-(6-aminopyridin-3-yl)-N-(2-(5-(5-(4,4-difluoropiperidine-1-carbonyl)pyridin-2-yl)-7-(trifluoromethyl)benzo[b]thiophen-2-yl)ethyl)acrylamide]	> 6.00	> 6.00	> 6.00
Nc1ccc(/C=C/C(=O)NCc2cc3cc(-c4ccc(C(=O)N5CCOCC5)cc4)cc(Cl)c3s2)cn1 [compound 500, (E)-3-(6-aminopyridin-3-yl)-N-((7-chloro-5-(4-(morpholine-4-carbonyl)phenyl)benzo[b]thiophen-2-yl)methyl)acrylamide]	> 6.00	> 6.00	< 5.00
CC1(O)CCN(C(=O)c2ccc(-c3cc(C(F)(F)F)c4sc(CNC(=O)/C=C/c5ccc(N)nc5)cc4c3)nc2)CC1 [compound 516, (E)-3-(6-aminopyridin-3-yl)-N-((5-(5-(4-hydroxy-4-methylpiperidine-1-carbonyl)pyridin-2-yl)-7-(trifluoromethyl)benzo[b]thiophen-2-yl)methyl)acrylamide]	5.30 to 6.00	> 6.00	< 5.00
Nc1ccc(/C=C/C(=O)NCc2cc3cc(-c4ccc(C(=O)N5CCC(O)(C(F)(F)F)C5)cn4)cc(C(F)(F)F)c3s2)cn1 (stereo not drawn) [compound 509, (E)-3-(6-aminopyridin-3-yl)-N-((5-(5-(3-hydroxy-3-(trifluoromethyl)pyrrolidine-1-carbonyl)pyridin-2-yl)-7-(trifluoromethyl)benzo[b]thiophen-2-yl)methyl)acrylamide]	5.30 to 6.00	> 6.00	< 5.00
Nc1ccc(/C=C/C(=O)NCc2cc3cc(-c4ccc(C(=O)N5CC6(C5)CC(F)(F)C6)cc4)cc(C(F)(F)F)c3s2)cn1 [compound 527, (E)-3-(6-aminopyridin-3-yl)-N-((5-(4-(6,6-difluoro-2-azaspiro[3.3]heptane-2-carbonyl)phenyl)-7-(trifluoromethyl)benzo[b]thiophen-2-yl)methyl)acrylamide]	5.30 to 6.00	5.30 to 6.00	< 5.00
Cn1c(CNC(=O)/C=C/c2ccc(N)nc2)nc2c(C(F)(F)F)cc(-c3ccc(C(=O)N4CCC(F)(F)CC4)cn3)cc21 [compound 531, (E)-3-(6-aminopyridin-3-yl)-N-((6-(5-(4,4-difluoropiperidine-1-carbonyl)pyridin-2-yl)-1-methyl-4-(trifluoromethyl)-1H-benzo[d]imidazol-2-yl)methyl)acrylamide]	< 5.00	< 5.00	< 5.00
Nc1ccc(/C=C/C(=O)NCc2cc3cc(-c4ccc(C(=O)N5CCC(F)(F)CC5)cc4)cc(C(F)(F)F)c3s2)cn1 [compound 518, (E)-3-(6-aminopyridin-3-yl)-N-((5-(4-(4,4-difluoropiperidine-1-carbonyl)phenyl)-7-(trifluoromethyl)benzo[b]thiophen-2-yl)methyl)acrylamide]	5.30 to 6.00	5.30 to 6.00	< 5.00
